Patent publication US20250205186A1, “USE OF CHLOROGENIC ACID IN PREPARING MEDICINE OR PHARMACEUTICAL COMPOSITION FOR PREVENTING OR TREATING PAIN” (SICHUAN JIUZHANG BIOLOGICAL SCIENCE AND TECHNOLOGY CO., LTD., priority 2019, published 2025)

Columns and labels:
[1] = test system: bone cancer pain in rats (Walker rat breast cancer cells, tibia implant model); experiment: Mechanical pain hypersensitivity (paw withdrawal threshold) in rat tibia implant bone cancer pain model; assay type: in vivo; details: for Paw withdrawal threshold compared with the model group: from 5-7 days after administration, p<0.05
Experimental: After two SD female rats were intraperitoneally injected with 0.5 mL cancer cells (4×10^4 cells/μL), ascites was collected on the 7th day, and the cells are rinsed 3 times with sterile 0.01 mol/L PBS to adjust to the concentration of 4×10^3 cells/μL for use. 60 SD rats were randomly selected, and after anesthesia, a small 1 cm incision was made in the upper tibial skin. A 10 mL syringe needle was used to puncture and perforate, then a 10 μL syringe was inserted into the bone marrow cavity, and 3 μL cell suspension containing […] Walker rat breast cancer cells was slowly injected. The pinhole was sealed with bone wax, and the skin was sutured. After surgery, the rats were placed on a 37° C. hot plate for rewarming. After recovery, rats were returned to the cage for further breeding, to obtain the model group. In addition, 8 SD rats were randomly selected, and an equal volume of PBS solution was injected into the marrow cavity of the left upper tibia. The rest of the operations were the same as the model group, to obtain the sham operation group. Mechanical pain hypersensitivity: continuous pain measurement was performed from the 10th day after the operation, the contact stimulator's fine fibers were allowed to touch with the middle of the affected side of the rat's plantar, and the force can be increased up to 80 g within 5 seconds. The rat's paw withdrawal respond was observed, and the paw withdrawal threshold was recorded. Each animal was tested 5 times, with an interval of 5 min between two tests. […] The rats that had been successfully modeled were randomly divided into groups, eight rats for each group, that included high-dose chlorogenic acid group (80 mg/kg), middle-dose chlorogenic acid group (40 mg/kg), low-dose chlorogenic acid group (20 mg/kg), model negative group (N.S normal saline), and sham operation group (N.S normal saline). The rats were intraperitoneally injected with drugs for 15 days in a volume of 0.2 mL/10 g, once a day; the model-negative group and the sham operation group were given the same volume of normal saline. From the second day after administration, the mechanical pain hypersensitivity and radiation thermal pain were investigated before each administration, and the paw withdrawal threshold and the pain threshold were recorded.

[2] = test system: DA; experiment: DA content in brain tissue by HPLC-EC in bone cancer pain rats; assay type: in vivo, rat; details: for DA content in the brain tissue: after 15 days of administration
Experimental: 60 SD rats were randomly selected, and after anesthesia, a small 1 cm incision was made in the upper tibial skin. A 10 mL syringe needle was used to puncture and perforate, then a 10 μL syringe was inserted into the bone marrow cavity, and 3 μL cell suspension containing […] Walker rat breast cancer cells was slowly injected. The pinhole was sealed with bone wax, and the skin was sutured. After surgery, the rats were placed on a 37° C. hot plate for rewarming. After recovery, rats were returned to the cage for further breeding, to obtain the model group. In addition, 8 SD rats were randomly selected, and an equal volume of PBS solution was injected into the marrow cavity of the left upper tibia. The rest of the operations were the same as the model group, to obtain the sham operation group. The rats that had been successfully modeled were randomly divided into groups, eight rats for each group, that included high-dose chlorogenic acid group (80 mg/kg), middle-dose chlorogenic acid group (40 mg/kg), low-dose chlorogenic acid group (20 mg/kg), model negative group (N.S normal saline), and sham operation group (N.S normal saline). The rats were intraperitoneally injected with drugs for 15 days in a volume of 0.2 mL/10 g, once a day; the model-negative group and the sham operation group were given the same volume of normal saline. After the rats were sacrificed, the hypothalamus was quickly separated, homogenized in an ice bath with perchloric acid, and centrifuged. The supernatant was collected, and the contents of NE, DA, and 5-HT were determined by HPLC-EC method (Hou […], Wang Na, et al, Effects of progesterone on morphine-induced conditioned place preference and levels of monoamine transmitters in rat brain. Chinese Journal of Pharmacology, 2006, 22(8), 980-983).

`O=C(/C=C/c1ccc(O)c(O)c1)O[C@@H]1C[C@](O)(C(=O)O)C[C@@H](O)[C@H]1O` [Chlorogenic acid] gave a Paw withdraw threshold ([1]; 20 mg/kg ip once a day, 2 d) of 16.46 g, a Paw withdraw threshold ([1]; 20 mg/kg ip once a day, 3 d) of 22.32 g and a Paw withdraw threshold ([1]; 20 mg/kg ip once a day, 4 d) of 26.14 g. It also gave a Paw withdraw threshold ([1]; 20 mg/kg ip once a day, 5 d) of 24.86 g, a Paw withdraw threshold ([1]; 20 mg/kg ip once a day, 6 d) of 31.21 g and a Paw withdraw threshold ([1]; 20 mg/kg ip once a day, 7 d) of 37.06 g. The Paw withdraw threshold ([1]; 20 mg/kg ip once a day, 8 d) was 35.11 g, the Paw withdraw threshold ([1]; 20 mg/kg ip once a day, 9 d) was 38.48 g and the Paw withdraw threshold ([1]; 20 mg/kg ip once a day, 10 d) was 37.23 g. It also gave a Paw withdraw threshold ([1]; 20 mg/kg ip once a day, 11 d) of 34.22 g, a Paw withdraw threshold ([1]; 20 mg/kg ip once a day, 12 d) of 36.74 g and a Paw withdraw threshold ([1]; 20 mg/kg ip once a day, 13 d) of 33.02 g. The Paw withdraw threshold ([1]; 20 mg/kg ip once a day, 14 d) was 35.43 g, the Paw withdraw threshold ([1]; 20 mg/kg ip once a day, 15 d) was 36.52 g and the “Paw withdrawal threshold compared with the model group” value ([1]; 20 mg/kg) was “significant difference”. It also gave a Paw withdraw threshold ([1]; 40 mg/kg ip once a day, 2 d) of 18.53 g, a Paw withdraw threshold ([1]; 40 mg/kg ip once a day, 3 d) of 24.94 g and a Paw withdraw threshold ([1]; 40 mg/kg ip once a day, 4 d) of 36.37 g. It also gave a Paw withdraw threshold ([1]; 40 mg/kg ip once a day, 5 d) of 42.83 g, a Paw withdraw threshold ([1]; 40 mg/kg ip once a day, 6 d) of 43.59 g and a Paw withdraw threshold ([1]; 40 mg/kg ip once a day, 7 d) of 45.85 g. It also gave a Paw withdraw threshold ([1]; 40 mg/kg ip once a day, 8 d) of 50.41 g, a Paw withdraw threshold ([1]; 40 mg/kg ip once a day, 9 d) of 46.49 g and a Paw withdraw threshold ([1]; 40 mg/kg ip once a day, 10 d) of 48.77 g. For the same compound, the Paw withdraw threshold ([1]; 40 mg/kg ip once a day, 11 d) was 44.59 g, the Paw withdraw threshold ([1]; 40 mg/kg ip once a day, 12 d) was 50.52 g and the Paw withdraw threshold ([1]; 40 mg/kg ip once a day, 13 d) was 43.72 g. For the same compound, the Paw withdraw threshold ([1]; 40 mg/kg ip once a day, 14 d) was 48.73 g, the Paw withdraw threshold ([1]; 40 mg/kg ip once a day, 15 d) was 46.51 g and the “Paw withdrawal threshold compared with the model group” value ([1]; 40 mg/kg) was “significant difference”. The Paw withdraw threshold ([1]; 80 mg/kg ip once a day, 2 d) was 20.58 g, the Paw withdraw threshold ([1]; 80 mg/kg ip once a day, 3 d) was 18.59 g and the Paw withdraw threshold ([1]; 80 mg/kg ip once a day, 4 d) was 24.41 g. The Paw withdraw threshold ([1]; 80 mg/kg ip once a day, 5 d) was 24.39 g, the Paw withdraw threshold ([1]; 80 mg/kg ip once a day, 6 d) was 26.53 g and the Paw withdraw threshold ([1]; 80 mg/kg ip once a day, 7 d) was 26.07 g. The Paw withdraw threshold ([1]; 80 mg/kg ip once a day, 8 d) was 24.52 g, the Paw withdraw threshold ([1]; 80 mg/kg ip once a day, 9 d) was 26.11 g and the Paw withdraw threshold ([1]; 80 mg/kg ip once a day, 10 d) was 23.21 g. For the same compound, the Paw withdraw threshold ([1]; 80 mg/kg ip once a day, 11 d) was 25.42 g, the Paw withdraw threshold ([1]; 80 mg/kg ip once a day, 12 d) was 22.63 g and the Paw withdraw threshold ([1]; 80 mg/kg ip once a day, 13 d) was 25.79 g. For the same compound, the Paw withdraw threshold ([1]; 80 mg/kg ip once a day, 14 d) was 23.25 g, the Paw withdraw threshold ([1]; 80 mg/kg ip once a day, 15 d) was 24.83 g and the “Mechanical paw withdrawal threshold compared with the model group” value ([1]; 80 mg/kg, p>0.05) was “not statistically significant”. The “DA content in the brain tissue” value ([2]; 20 mg/kg ip once a day) was 1.38 ± 0.21 nmol/g, the “DA content in brain tissue compared with the model-negative group” value ([2]; 20 mg/kg, p<0.05) was “the difference was significant” and the “DA content in the brain tissue” value ([2]; 40 mg/kg ip once a day) was 1.46 ± 0.08 nmol/g. For the same compound, the “DA content in brain tissue compared with the model-negative group” value ([2]; 40 mg/kg, p<0.05) was “the difference was significant”, the “DA content in the brain tissue” value ([2]; 80 mg/kg ip once a day) was 1.15 ± 0.12 nmol/g and the “DA content in brain tissue compared with the model-negative group” value ([2]; 80 mg/kg, p>0.05) was “no significant difference”.
